In ChEMBL document CHEMBL1130499, “Synthesis of halogenated/nitrated flavone derivatives and evaluation of their affinity for the central benzodiazepine receptor” (Bioorg Med Chem Lett, 1997):

Each molecule was assayed against GABA-A receptor; anion channel (assay: Displacement of [3H]flunitrazepine binding from GABA-A central benzodiazepine receptor of rat cerebral cortical membrane).

SMILES | Ki [nM]
O=c1cc(-c2ccccc2[N+](=O)[O-])oc2ccc([N+](=O)[O-])cc12 | > 10000
O=c1cc(-c2ccccc2)oc2ccc([N+](=O)[O-])cc12 | 275
O=c1cc(-c2cccc([N+](=O)[O-])c2)oc2ccccc12 | 285
O=c1cc(-c2cccc([N+](=O)[O-])c2)oc2ccc([N+](=O)[O-])cc12 | 26
O=c1cc(-c2ccc(Br)cc2)oc2ccccc12 | > 20000
O=c1cc(-c2ccccc2[N+](=O)[O-])oc2ccccc12 | > 20000
O=c1cc(-c2cccc(Br)c2)oc2ccc(Br)cc12 | 19
O=c1cc(-c2ccc([N+](=O)[O-])cc2)oc2ccc(Br)cc12 | 200
O=c1cc(-c2cccc(Br)c2)oc2ccccc12 | 413
O=c1cc(-c2cccc([N+](=O)[O-])c2)oc2ccc(F)cc12 | 180
O=c1cc(-c2cccc(Cl)c2)oc2ccccc12 | 614
O=c1cc(-c2ccccc2[N+](=O)[O-])oc2ccc(Br)cc12 | 208
O=c1cc(-c2cccc([N+](=O)[O-])c2)oc2ccc(Cl)cc12 | 8
O=c1c(Br)c(-c2cccc([N+](=O)[O-])c2)oc2ccccc12 | > 20000
O=c1c(Br)c(-c2ccccc2)oc2ccc(Br)cc12 | > 75000
O=c1cc(-c2ccccc2)oc2ccc(F)cc12 | 4500
O=c1c(Br)c(-c2ccccc2)oc2ccccc12 | > 75000
O=c1cc(-c2cc([N+](=O)[O-])cc([N+](=O)[O-])c2)oc2ccccc12 | > 20000
O=c1cc(-c2ccc([N+](=O)[O-])cc2)oc2ccc([N+](=O)[O-])cc12 | > 10000
O=c1cc(-c2cccc(Br)c2)oc2ccc([N+](=O)[O-])cc12 | 25
O=c1cc(-c2ccccc2)oc2ccc(Br)cc12 [6-BROMOFLAVONE] | 75
O=c1cc(-c2ccccc2)oc2ccc(Cl)cc12 [6-CHLOROFLAVONE] | 164
O=c1cc(-c2ccccc2)oc2ccccc12 [FLAVONE] | 1000
